Test system: Ebola virus
Design: species or system mice
Conditions: mouse, in vivo

SMILES	effectiveness of single dose 4 days after challenge	protection
N=C(N)c1ccc2oc(C=Cc3nc4ccc(C(=N)N)cc4[nH]3)cc2c1 [Compound 723, 2-[2-(5-carbamimidoyl-benzofuran-2-yl)-vinyl]-3H-benzoimidazole-5-carboxamidine]	effectiveness	
Cc1cc(NCCCN(C)C)c2ccc3c(ccc4c(NCCCN(C)C)cc(C)nc43)c2n1.Cl.Cl.Cl.Cl [Compound 365, Quino[8,7-h]quinoline-1,7-diamine,N,N′-bis[3-(dimethylamino)propyl]-3,9-dimethyl-tetrahydrochloride]		100%
